According to PubChem BioAssay (NCI):
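Step 1: Grow cells in 96-well plates. Step 2: Expose to compound for 48 hours at 5 concentrations. Step 3: Interpolate endpoints linearly; if unreached, use highest concentration. The concentration for 50% growth inhibition is given as GI50. TGI denotes the concentration required for complete inhibition of growth.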

Key:
Experiment in all cases: NCI anticancer screen, dose series, 48 h
IGROV1 ovarian = test system: IGROV1 ovarian
A498 renal = test system: A498 renal
NCI/ADR-RES ovarian = test system: NCI/ADR-RES ovarian
UACC-257 melanoma = test system: UACC-257 melanoma
HCT-15 colon = test system: HCT-15 colon
UACC-62 melanoma = test system: UACC-62 melanoma
DU-145 prostate = test system: DU-145 prostate
HCT-116 colon = test system: HCT-116 colon
MCF7 breast = test system: MCF7 breast
OVCAR-3 ovarian = test system: OVCAR-3 ovarian
SR leukemia = test system: SR leukemia
MOLT-4 leukemia = test system: MOLT-4 leukemia
SK-MEL-5 melanoma = test system: SK-MEL-5 melanoma
HT29 colon = test system: HT29 colon
BT-549 breast = test system: BT-549 breast
COLO 205 colon = test system: COLO 205 colon
UO-31 renal = test system: UO-31 renal
HOP-62 NSCLC = test system: HOP-62 NSCLC
U251 CNS = test system: U251 CNS
HCC-2998 colon = test system: HCC-2998 colon
OVCAR-5 ovarian = test system: OVCAR-5 ovarian
CAKI-1 renal = test system: CAKI-1 renal
K-562 leukemia = test system: K-562 leukemia
T-47D breast = test system: T-47D breast
SK-MEL-2 melanoma = test system: SK-MEL-2 melanoma
786-0 renal = test system: 786-0 renal
SF-539 CNS = test system: SF-539 CNS
SW-620 colon = test system: SW-620 colon
SNB-75 CNS = test system: SNB-75 CNS
HOP-92 NSCLC = test system: HOP-92 NSCLC
NCI-H226 lung = test system: NCI-H226 lung
SF-268 CNS = test system: SF-268 CNS
RPMI-8226 leukemia = test system: RPMI-8226 leukemia
RXF 393 renal = test system: RXF 393 renal
OVCAR-4 ovarian = test system: OVCAR-4 ovarian
KM12 colon = test system: KM12 colon
SF-295 CNS = test system: SF-295 CNS
EKVX NSCLC = test system: EKVX NSCLC
HL-60(TB) leukemia = test system: HL-60(TB) leukemia
NCI-H460 lung = test system: NCI-H460 lung
SK-OV-3 ovarian = test system: SK-OV-3 ovarian
ACHN renal = test system: ACHN renal
CCRF-CEM leukemia = test system: CCRF-CEM leukemia
HS 578T breast = test system: HS 578T breast
SNB-19 CNS = test system: SNB-19 CNS

Structure (SMILES): Fc1ccc(-c2cc3nc(C(Cl)Cl)nc(-c4ccc(F)cc4)n3n2)cc1
- GI50 (IGROV1 ovarian): 3.99 µM
- TGI (IGROV1 ovarian): > 100 µM
- GI50 (A498 renal): 1.65 µM
- TGI (A498 renal): 3.44 µM
- GI50 (NCI/ADR-RES ovarian): 1.26 µM
- TGI (NCI/ADR-RES ovarian): 5.84 µM
- GI50 (UACC-257 melanoma): 2.26 µM
- TGI (UACC-257 melanoma): 4.91 µM
- GI50 (HCT-15 colon): 1.11 µM
- TGI (HCT-15 colon): 6.16 µM
- GI50 (UACC-62 melanoma): 3.21 µM
- TGI (UACC-62 melanoma): > 100 µM
- GI50 (DU-145 prostate): 0.443 µM
- TGI (DU-145 prostate): 2.97 µM
- GI50 (HCT-116 colon): 0.637 µM
- TGI (HCT-116 colon): 6.3 µM
- GI50 (MCF7 breast): 1.21 µM
- TGI (MCF7 breast): > 100 µM
- GI50 (OVCAR-3 ovarian): 1.54 µM
- TGI (OVCAR-3 ovarian): 3.51 µM
- GI50 (SR leukemia): 1.4 µM
- TGI (SR leukemia): > 100 µM
- GI50 (MOLT-4 leukemia): 1.8 µM
- TGI (MOLT-4 leukemia): 9.61 µM
- GI50 (SK-MEL-5 melanoma): > 100 µM
- TGI (SK-MEL-5 melanoma): > 100 µM
- GI50 (HT29 colon): 0.746 µM
- TGI (HT29 colon): 3.85 µM
- GI50 (BT-549 breast): 2.43 µM
- TGI (BT-549 breast): 42.8 µM
- GI50 (COLO 205 colon): 1.15 µM
- TGI (COLO 205 colon): 2.52 µM
- GI50 (UO-31 renal): 3.1 µM
- TGI (UO-31 renal): > 100 µM
- GI50 (HOP-62 NSCLC): 1.5 µM
- TGI (HOP-62 NSCLC): 4.26 µM
- GI50 (U251 CNS): 1.22 µM
- TGI (U251 CNS): 5.27 µM
- GI50 (HCC-2998 colon): 1.01 µM
- TGI (HCC-2998 colon): 2.35 µM
- GI50 (OVCAR-5 ovarian): 2.27 µM
- TGI (OVCAR-5 ovarian): 7.29 µM
- GI50 (CAKI-1 renal): 1.89 µM
- TGI (CAKI-1 renal): 6.74 µM
- GI50 (K-562 leukemia): 2.3 µM
- TGI (K-562 leukemia): > 100 µM
- GI50 (T-47D breast): 2.62 µM
- TGI (T-47D breast): > 100 µM
- GI50 (SK-MEL-2 melanoma): > 100 µM
- TGI (SK-MEL-2 melanoma): > 100 µM
- GI50 (786-0 renal): 16.9 µM
- TGI (786-0 renal): > 100 µM
- GI50 (SF-539 CNS): 3.56 µM
- TGI (SF-539 CNS): > 100 µM
- GI50 (SW-620 colon): 1.11 µM
- TGI (SW-620 colon): 6.85 µM
- GI50 (SNB-75 CNS): 64.9 µM
- TGI (SNB-75 CNS): > 100 µM
- GI50 (HOP-92 NSCLC): 2.6 µM
- TGI (HOP-92 NSCLC): 9.69 µM
- GI50 (NCI-H226 lung): 6.14 µM
- TGI (NCI-H226 lung): > 100 µM
- GI50 (SF-268 CNS): 2.48 µM
- TGI (SF-268 CNS): > 100 µM
- GI50 (RPMI-8226 leukemia): 2.66 µM
- TGI (RPMI-8226 leukemia): > 100 µM
- GI50 (RXF 393 renal): 1.1 µM
- TGI (RXF 393 renal): 2.43 µM
- GI50 (OVCAR-4 ovarian): 1.82 µM
- TGI (OVCAR-4 ovarian): 5.75 µM
- GI50 (KM12 colon): 1.73 µM
- TGI (KM12 colon): 5.22 µM
- GI50 (SF-295 CNS): 2.17 µM
- TGI (SF-295 CNS): 5.78 µM
- GI50 (EKVX NSCLC): 1.68 µM
- TGI (EKVX NSCLC): 4.37 µM
- GI50 (HL-60(TB) leukemia): 0.69 µM
- GI50 (NCI-H460 lung): 0.591 µM
- TGI (NCI-H460 lung): 3.17 µM
- GI50 (SK-OV-3 ovarian): 2.36 µM
- TGI (SK-OV-3 ovarian): 6.34 µM
- GI50 (ACHN renal): 0.676 µM
- TGI (ACHN renal): 4.16 µM
- GI50 (CCRF-CEM leukemia): 4.21 µM
- TGI (CCRF-CEM leukemia): > 100 µM
- GI50 (HS 578T breast): 4.14 µM
- TGI (HS 578T breast): > 100 µM
- GI50 (SNB-19 CNS): 1.65 µM
- TGI (SNB-19 CNS): 6.88 µM
